Results published in article PMC3587609, “A Novel Cell-Penetrating Peptide Derived from Human Eosinophil Cationic Protein” (PLoS ONE, 2013).
No end group written: not given here.

Legend:
Beas-2B cells [1] = assay: Cell viability assay (MTT)
Description: Beas-2B cells were grown in serum-free medium in the presence of ECP^32–41 at indicated concentrations for 24 h. (A) The cytotoxic effect of ECP^32–41 was measured by MTT assay. The cell viability of untreated cells was set to 100%. Cells treated with 0.1% Triton X-100 was used as a positive control. (B) The membrane disruption by ECP^32–41 was measured by LDH assay. LDH released from cells lysed with 0.1% Triton X-100 in medium was defined as 100% leakage and LDH released from untreated cells was set as 0% leakage.
Beas-2B cells were incubated with 10 µM eGFP or eGFP-ECP^32–41 at 37°C for 1 h. The cells were then washed with 500 µl PBS, trypsinized at 37°C for 15 min, suspended in 500 µl PBS, and subjected to flow cytometry. (B) Beas-2B cells were treated with the indicated concentrations of TAT^47–57, ECP^32–41, KLA, KLA-TAT^47–57 or KLA-ECP^32–41 at 37°C for 24 h, and their cytotoxic effects were determined by the MTT assay. Cytotoxic effects of (C) KLA-TAT^47–57 and (D) KLA-ECP^32–41, at the indicated concentrations, on Beas-2B, A549, Caco-2, and AGS cells were assessed by the MTT assay after incubation at 37°C for 24 h. The cell viability untreated cells was set to 100%. The result is expressed as the mean ± S.D., n = 3.
The effects of the peptides on cell viability were determined colourimetrically using 3-(4,5-dimethylthiazol-2-yl)-2,5-diphenyltetrazolium bromide (MTT) (US Biological). Cells (1.0×10^4/well) were seeded into the wells of 96-well plates and incubated overnight. Cell samples were then exposed to different concentrations of TAT^47–57, ECP^32–41, KLA, KLA-TAT^47–57 or KLA-ECP^32–41. After 24 h, 100 µl of 0.5 mg/ml MTT in medium was added into each well, and the cells were incubated at 37°C for 3 h. The incubation medium was removed, and the remaining purple crystal formazan was dissolved in dimethylsulphoxide. Cells treated with 0.1% Triton X-100 was used as a positive control for cell viability. A540 values were measured using a multiwall plate reader (Molecular Devices).

AGS cells = assay: Cell viability assay (MTT); assay type: cell-based, human; details: 24 h
Excerpt: (§1) The cell viability untreated cells was set to 100%.

Caco-2 cells = assay: Cell viability assay (MTT); assay type: cell-based, human; details: 24 h
Excerpt: as §1

Beas-2B cells [2] = assay: Cell-surface HS / CS after enzyme treatment (anti-HS or anti-CS antibody, flow cytometry); assay type: cell-based; details: 2 h, untreated cells 100%, n = 3; for decrease of the amount of HS on Beas-2B cell surfaces: 5 U/ml heparinase I or 2.4 U/ml heparinase III, anti-HS monoclonal antibody
Description: Figure 3 HS-dependent ECP^32–-41 internalization. […] (B) Samples of wild-type and mutant CHO cells were each incubated with 5 µM FITC-ECP^32–41 at 37°C for 1 h and then subjected to flow cytometry. (C) Samples of wild-type and mutant CHO cells were incubated with 5 µM FITC-ECP^32–41 at 37°C for 1 h., then washed twice with 1 ml PBS, and fixed for CLSM. Nuclei were stained with Hoechst 34850. Scale bar: 20 µm. (D) Beas-2B cells were treated with heparinase I, heparinase III, or chondroitinase ABC for 2 h prior to incubation with 5 µM FITC-ECP^32–41 at 37°C for 1 h. […] Untreated cells served as the controls. The fluorescence of cells treated with FITC-ECP^32–41 was set to 100%. […] (E) Beas-2B cells were treated with heparinase I, heparinase III, or chondroitinase ABC for 2 h. […] Untreated cells served as the control. The fluorescence of the untreated cells was set to 100%.
To verify that selective cell-surface polysaccharides had been enzymatically removed, the treated cells were subsequently incubated with anti-HS or anti-CS monoclonal antibodies. As expected, heparinase I and heparinase III had decreased the amount of HS on Beas-2B cell surfaces by 48% and 61%, respectively (Figure 3E, left panel), and chondroitinase ABC removed 72% of the cell-surface CS (Figure 3E, right panel). The HS that remained on Beas-2B cell surface accounted for the observed ECP^32–41 internalization into heparinase-treated cells. Conversely, even though 70% of the initial cell-surface CS had been removed, ECP^32–41 internalization was hardly affected–thus as concluded above, HS, rather than CS, is responsible for ECP^32–41 internalization.
Beas-2B cells (3.0×10^5/well) were incubated with RPMI 1640 medium overnight in six-well plates and then treated with 5 U/ml of heparinase I, 2.4 U/ml of heparinase III, or 10 U/ml of chondroitinase ABC (Sigma-Aldrich) at 37°C for 2 h. After a PBS wash, the cells were incubated with FITC-ECP^32–41 and assayed for internalization of the peptide by flow cytometry as described above.

With `N=C(N)NCCC[C@H](NC(=O)CN)C(=O)N[C@@H](CCCCN)C(=O)N[C@@H](CCCCN)C(=O)N[C@@H](CCCNC(=N)N)C(=O)N[C@@H](CCCNC(=N)N)C(=O)N[C@@H](CCC(N)=O)C(=O)N[C@@H](CCCNC(=N)N)C(=O)N[C@@H](CCCNC(=N)N)C(=O)N[C@@H](CCCNC(=N)N)C(=O)N1CCC[C@H]1C(=O)O` [TAT^47–57] the “cell viability (MTT) at 100 µM” value (Beas-2B cells [1]; Beas-2B, 100 µM peptide, 37°C, 24 h, n = 3) was “neither peptide affected cell viability”.

KLAKLAKKLAKLAK was tested, and the “cytotoxicity (MTT)” value (Beas-2B cells [1]) was “not cytotoxic”.

For “KLAKLAKKLAKLAKNYRWRCKNQN [KLA-ECP^32–41]”, the “EC50 fold higher than that of KLA-TAT47–57” value (AGS cells) was 2.42 fold and the “EC50 fold higher than that of KLA-TAT47–57” value (Caco-2 cells) was 1.6 fold.

For chondroitinase ABC, the “cell-surface CS removed” value (Beas-2B cells [2]; 10 U/ml chondroitinase ABC, anti-CS monoclonal antibody) was 72%.

With heparinase I the “decrease of the amount of HS on Beas-2B cell surfaces” value (Beas-2B cells [2]) was 48%.

For heparinase III, the “decrease of the amount of HS on Beas-2B cell surfaces” value (Beas-2B cells [2]) was 61%.
